In publication PMC11898488, “A2A Adenosine Receptor Antagonists and Their Efficacy in Rat Models of Parkinson’s Disease” (Cells, 2025):
Entries after “also recorded” stand apart in the source; their conditions may differ.

Experiments:
[1] = tested on: catalepsy induced by haloperidol; experiment: Haloperidol-induced catalepsy, vertical grid test; format: in vivo, rat; conditions: rats; for Effect on catalepsy induced by haloperidol: 5 mg/kg i.p. given 90 min after haloperidol 0.2 mg/kg s.c., 90 min testing period; for Duration of anticataleptic effect: 5 mg/kg i.p., haloperidol 0.2 mg/kg s.c., time after drug administration
Procedure: Male Sprague Dawley rats (200–300 g, Charles River, Calco, Italy) were housed in groups of 4–6 in standard polycarbonate cages with sawdust bedding and maintained on a 12 h light/dark cycle (lights on at 8:00 am). Food and water were freely available. All experiments were conducted in accordance with the guidelines for animal experimentation of the EU directives (2010/63/EU; L.276; 22 September 2010) and approved by the Committee on Animal Experimentation (CESA; protocol code 29456, 21 March 2012) of the University of Cagliari. Experiments were designed to minimize animal discomfort and to reduce the number of animals used.
Catalepsy was estimated using the vertical grid test. The test was carried out by placing a rat with the four paws on a wire grid (43–25 cm) at an angle of about 70° in respect to the bench surface. Catalepsy was determined by measuring the time in which the rat maintained a given position. The test was terminated when the rat moved one paw or when 90 s had elapsed from the placement of the rat on the grid. Catalepsy assessments were repeated every 10–15 min intervals. […] A2AAR antagonists were injected 90 min after haloperidol administration to evaluate their effects on deeply cataleptic rats. […]
For catalepsy evaluation, the mean and S.E.M. of the seconds of immobility during each test section were calculated. Significant differences between groups were evaluated by one-way analysis of variance (ANOVA) followed by a Newman–Keuls post hoc test.
After 40 min of haloperidol administration (0.2 mg/kg s.c.), a significant catalepsy was induced in rats, which reached its maximum at 60–70 min [18, 24]. Therefore, the administration of the A2AAR antagonists was made 90 min after haloperidol to evaluate their effects on deeply cataleptic rats.

human A2AAR = molecular target: T1, human A2AAR (Homo sapiens, UniProt P29274); experiment: Radioligand binding, displacement of [3H]NECA at human A2AAR in CHO cells; conditions: for Selectivity A1/A2A / Selectivity A3/A2A: ratio of Ki values at human ARs; for Ki: [3H]-NECA displacement, human A2AAR in CHO cells, geometric mean with 95% confidence limits, read-out: Ki A2A
T1 construct: expressed in transfected cells; host or cells: CHO cells, crude membrane fractions
T1 sequence (P29274 whole entry): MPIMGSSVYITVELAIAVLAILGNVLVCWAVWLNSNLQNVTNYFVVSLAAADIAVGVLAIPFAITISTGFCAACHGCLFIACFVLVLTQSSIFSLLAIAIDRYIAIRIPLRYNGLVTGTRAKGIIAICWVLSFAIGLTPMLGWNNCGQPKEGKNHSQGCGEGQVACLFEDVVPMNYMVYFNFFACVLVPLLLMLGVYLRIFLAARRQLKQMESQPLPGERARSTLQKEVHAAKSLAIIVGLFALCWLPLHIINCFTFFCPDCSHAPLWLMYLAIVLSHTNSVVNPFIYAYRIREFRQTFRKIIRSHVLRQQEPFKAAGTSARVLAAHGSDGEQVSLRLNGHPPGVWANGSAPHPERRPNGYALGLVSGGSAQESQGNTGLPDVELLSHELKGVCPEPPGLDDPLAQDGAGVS
Procedure: The radioligand binding experiments were carried out exactly as described previously. For A1AR binding, 1 nM [^3H]CCPA was used as a radioligand, whereas 30 and 10 nM [^3H]NECA were used for A2A and A3 ARs, respectively. Nonspecific binding was determined in the presence of 1 mM theophylline (A1AR) or […] R-PIA (A2A and A3 ARs). Ki values were calculated from competition curves by nonlinear curve fitting with the program SCTFIT [31].
CHO cells stably transfected with human ARs were grown adherently and maintained in Dulbecco’s Modified Eagles Medium with nutrient mixture F12 (DMEM/F12) without nucleosides, containing 10% fetal calf serum, penicillin (100 U/mL), streptomycin (100 μg/mL), L-glutamine (2 mM), and Geneticin (G-418, 0.2 mg/mL) at 37 °C in 5% CO2/95% air, as described earlier. For radioligand binding studies and measurement of adenylyl cyclase activity, crude membrane fractions were prepared from fresh or frozen cells with two different protocols described earlier. The determination of adenylyl cyclase activity followed the procedure described earlier. IC50 values for the inhibition of adenylyl cyclase stimulated (in the case of A2BAR) with 5 μM NECA were calculated with the Hill equation and converted to Ki values with the Cheng and Prusoff equation [32].
[^3H]CCPA (2-chloro-N^6-cyclopentylAdo) and [^3H]NECA (5′-N-ethylcarboxamidoAdo) were used as specific radioligands at A1ARand A2A / A3 ARs, respectively. Furthermore, the ability of the same compounds to inhibit NECA-stimulated adenylyl cyclase activity was evaluated at the A2BAR subtype. The results of the binding studies (A1, A2A, and A3 ARs) and functional data (A2BAR) are reported in Table 1 as Ki or IC50 values in nM, together with the data on the reference compounds 1–3.

6-OHDA-lesioned rats = experiment: Potentiation of L-dopa-induced contralateral rotations in unilaterally 6-OHDA-lesioned rats; format: in vivo, rat; conditions: 5 mg/kg i.p. with L-dopa 3 mg/kg i.p., turns in 2 h, versus L-dopa alone
Procedure: Rats (275–300 g) were anesthetized and placed on a David Kopf stereotaxic apparatus (Tujunga, CA, USA) and infused, using a stainless steel cannula, into the left medial forebrain bundle [coordinates A = −2.2, L = +1.5 from bregma, V = −7.9 from the dura, according to the atlas of Pellegrino et al. (1979) [34]] with 6-OHDA (8 μg/4 μL of saline containing 0.05% ascorbic acid). Rats were pretreated with desipramine (10 mg/kg i.p.) to prevent damage to noradrenergic neurons.
Rotational behavior was assessed in hemispherical bowls (50 cm diameter), with sawdust on the floor, in which each rat was connected to an automated rotameter system (Panlab s.l., Barcelona, Spain) capable of detecting the number of full (360°) rotations in both directions (ipsilateral and contralateral to the lesioned hemisphere). Rats were placed in the bowls 30 min before drug administration to acclimatize and extinguish any spontaneous rotational behavior, and both contralateral and homolateral rotations were measured in 10 min blocks for 120 min after drug injection. The total number of contralateral and homolateral rotations (mean ± SEM) in a 2 h testing period were calculated.
Potentiation of L-dopa-induced rotational behavior: two weeks after the unilateral 6-OHDA lesion, rats were screened based on their contralateral rotations in response to L-dopa (50 mg/kg i.p.) + benserazide (30 mg/ kg i.p.). Rats not showing at least 300 contralateral rotations during the 2 h testing period were eliminated from the study. Three days later, rats were administered with a subthreshold dose of L-dopa (3 mg/kg i.p.) + benserazide (6 mg/kg i.p.) in combination with the vehicle or with a dose of 5 mg/kg i.p of 1, 4, or 5. Compounds were administered simultaneously with L-dopa. Benserazide was always injected 30 min before L-dopa.
In the rotational behavior experiments, the mean and S.E.M. of the total number of contralateral rotations were calculated. Significant differences between groups were evaluated by one-way ANOVA followed by a Newman–Keuls post hoc test.

spontaneous motility = experiment: Spontaneous motility in rats; format: in vivo, rat; conditions: for Effect on spontaneous motility: 5 mg/kg i.p.; for Effect on motility at higher doses: 10 and 15 mg/kg

Row | SMILES | Efficacy on catalepsy, preliminary studies ([1]; 5 mg/kg) | Effect on catalepsy induced by haloperidol [1] | Duration of anticataleptic effect [1] | Efficacy on catalepsy, preliminary studies ([1]; 1 and 3 mg/kg) | Selectivity A1/A2A (human A2AAR) | Selectivity A3/A2A (human A2AAR) | Number of contralateral rotations induced by subthreshold L-dopa (6-OHDA-lesioned rats) | Effect on spontaneous motility (spontaneous motility) | Effect on motility at higher doses (spontaneous motility) | Ki (human A2AAR)
1 | CCn1c(Br)nc2c(N)nc(OCCc3ccccc3)nc21 [Compound 1, 8-bromo-9-ethyl-2-phenetoxyadenine] | fully effective | significantly antagonized catalepsy | 10 to 90 min | low efficacy on catalepsy | 14 | 641 | did not increase | did not modify spontaneous motility | caused hypermotility | –
2 | CCOc1nc2c(N)nc(OCCc3ccccc3)nc2n1CC [Compound 4, 8-ethoxy-9-ethyl-2-phenethoxyadenine] | fully effective | significantly antagonized catalepsy; also recorded: longer duration and a strong intensity | 10 to 90 min | low efficacy on catalepsy | 23 | 97 | significantly increased | did not modify spontaneous motility | caused hypermotility | 3.7 nM
3 | CCn1c(I)nc2c(N)nc(OCCc3ccccc3)nc21 [Compound 5, 9-ethyl-8-iodo-2-phenethoxy-9H-purin-6-amine] | fully effective | significantly antagonized catalepsy | ≤ 60 min | low efficacy on catalepsy | 21 | 408 | significantly increased | did not modify spontaneous motility | caused hypermotility | 1.2 nM
